According to US7982057B2, “Compound of stemphones and production thereof” (The Kitasato Institute, priority 2006, dated 2011):
≈ marks a conversion by molar mass, not a printed value.

What was measured:
Solubility in solvent = assay type: physicochemical
Jurkat cells = experiment: Cytotoxicity on Jurkat cells by MTT method; assay type: cell-based; conditions: Homo sapiens, 48 hours
Protocol: Method for Evaluation of Cytotoxicity
Evaluation of cytotoxicity on Jurkat cells were performed by MTT method (Mosmaan, et al. J. Immunol. Methods, 65: 55-63, 1983). Cultured liquid of Jurkat cells were suspended in RPMI-1640 medium (Iwaki & Co., Ltd., Japan) to give suspension with 4×10^5 cells/ml, and the suspension 0.05 ml was seeded in each well of 96 well microplate (Corning Corp.). Subsequently, stemphone D substance, stemphone E substance, stemphone E1 substance, stemphone E2 substance, stemphone E3 substance or stemphone F substance (0.05 ml, 2% methanol/PRMI-1640 medium) was added and incubated at 37° C. for 48 hours in 5% carbon dioxide gas incubator. Then MTT reagent (SIGMA Inc.) dissolved in PBS to give concentration 5.5 mg/ml, 0.01 ml was added and reacted at 37° C. for 4 hours. After the reaction was performed, cell-lysing solution (40%, N-dimethylformamide (Kanto Chemical Co., Inc., Japan), 20% sodiumdodecyl sulfate (Wako Pure Chemical Industries, Ltd., Japan) 2% acetic acid (Kanto Chemical Co., Inc., Japan), 0.03% hydrochloric acid (Kanto Chemical Co., Inc., Japan) in purified water) 0.09 ml was added, and stirred at room temperature for 2 hours, then absorption at 550 nm was measured by using ELx 808 (BIO-TEK Instruments Inc.). As compared with stemphone C substance previously reported by the present inventor (ratio: 1.0), about 4-fold to 60-fold reduction of toxicity were confirmed.

[1] = test system: methicillin resistant Staphylococcus aureus K24; experiment: Enhancing effect for activity of imipenem by paper disk method; assay type: cell-based; conditions: 10 μg disc, 37° C. for 20 hours; for inhibitory zone in the presence of imipenem: MHA medium with imipenem final concentration 10 μg/ml; for inhibitory zone, substance alone: MHA medium without imipenem
Protocol: Biological properties of compound of stemphones of the present invention are described in detail as follows. Method for evaluation of enhancing effect for activity of imipenem by paper disk method
Clinically isolated strain of methicillin resistant Staphylococcus aureus K24 was used as a test organism. Staphylococcus aureus was cultured in Mueller-Hinton broth (2.1% w/v) (DIFCO) at 37° C. for 20 hours, and was suspended corresponding to 0.5 Mc FARLAND (about 10^8 CFU/ml) in the same medium.
Smearing was performed by using sterilized cotton swab (Kawamoto Sangyo K.K., Japan) according to a method of National Committee for Laboratory Standard, NCCLS, U.S.A. Antibacterial activities against test organism on various media were expressed with a unit in mm of a diameter of inhibition zone after incubation with the paper disc (thin disc, […], ADVANTEC Inc.) method at 37° C. for 20 hours.

Row | Compound | Solubility in methanol and chloroform (Solubility in solvent) | Solubility in water (Solubility in solvent) | IC50 (Jurkat cells) [µg/mL] | inhibitory zone in the presence of imipenem [1] [mm] | inhibitory zone, substance alone [1]
1 | C/C=C(\C)C(OC(C)=O)C(C)C1=CC(=O)C2=C(OC3(C)CCC4OC(C(C)(C)O)CC(O)C4(C)C3C2)C1=O (stereo not drawn) [stemphone D substance] | Soluble | insoluble | 1.8 (≈ 3.39 µM) | 25 | not observed
2 | C/C=C(\C)C(OC(C)=O)C(C)c1cc(OC)c2c(c1O)OC1(C)CCC3OC(C(C)(C)O)CC(O)C3(C)C1C2O (stereo not drawn) [stemphone E1 substance] | Soluble | insoluble | 26.2 (≈ 46.6 µM) | 15 | not observed
3 | C/C=C(\C)C(OC(C)=O)C(C)c1cc(O)c2c(c1O)OC1(C)CCC3OC(C(C)(C)O)CC(O)C3(C)C1=C2 (stereo not drawn) [stemphone E2 substance] | Soluble | insoluble | 4.4 (≈ 8.29 µM) | 22 | not observed
4 | C/C=C(\C)C(OC(C)=O)C(C)C1=CC(=O)C2=C(OC3(C)CCC4OC(C(C)(C)O)CC(O)C4(C)C3=C2)C1=O (stereo not drawn) [stemphone E3 substance] | Soluble | insoluble | 2.6 (≈ 4.92 µM) | 20 | not observed

Second part, led by results:

Row | Solubility in methanol and chloroform (Solubility in solvent) | Solubility in water (Solubility in solvent) | Compound | IC50 (Jurkat cells) [µg/mL] | inhibitory zone in the presence of imipenem [1] [mm] | inhibitory zone, substance alone [1]
5 | Soluble | insoluble | C/C=C(\C)C(OC(C)=O)C(C)c1cc(O)c2c(c1O)OC1(C)CCC3OC(C(C)(C)O)CC(O)C3(C)C1C2O (stereo not drawn) [stemphone E substance] | 3.6 (≈ 6.56 µM) | 22 | not observed
6 | Soluble | insoluble | C/C=C(\C)C(OC(C)=O)C(C)C1=CC(=O)C2=C(OC3(C)CCC4OC(C(C)(C)O)CC(O)C4(C)C3C2O)C1(O)CC(C)=O (stereo not drawn) [stemphone F substance] | 2.7 (≈ 4.46 µM) | 20 | not observed
